Measurements: PubChem BioAssay AID330 (DTP/NCI, 2004)
Several values for one entry are separate records, joined by “and”; a condition that tells them apart may be missing. Equal values may be shown once. Inconclusive results and toxic doses are left out.

System: P388 leukemia ip, CD2F1 mice, survival T/C
Test: NCI In Vivo Anticancer Drug Screen. Data for tumor model P388 Leukemia (intraperitoneal) in CD2F1 (CDF1) mice
Conditions: endpoint: median survival time, higher = longer survival
How it was run: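 Mice carrying the transplanted tumor received test compound or vehicle. Survival was recorded in each group, and the value is the treated-group measurement divided by that of the vehicle-treated control group.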

SMILES: N[C@@H](Cc1ccc(N(CCCl)CCCl)cc1)C(=O)O
- T/C (dose: 0.25 mg/kg/injection, schedule: Q01DX009 (ip), vehicle: saline): 152 % of control
- T/C (dose: 0.25 mg/kg/injection, schedule: Q01DX009 (ip), vehicle: suspension in saline): 117 % of control
- T/C (dose: 0.25 mg/kg/injection, schedule: Q03HX008 (ip), vehicle: saline): 165 % of control
- T/C (dose: 0.38 mg/kg/injection, schedule: Q01DX005 (ip), vehicle: saline): 154 % of control
- T/C (dose: 0.5 mg/kg/injection, schedule: Q01DX005 (ip), vehicle: saline): 153 % of control and 189 % of control
- T/C (dose: 0.5 mg/kg/injection, schedule: Q01DX009 (ip), vehicle: saline): 163 % of control and 170 % of control
- T/C (dose: 0.5 mg/kg/injection, schedule: Q01DX009 (ip), vehicle: suspension in saline): 123 % of control
- T/C (dose: 0.5 mg/kg/injection, schedule: Q03HX008 (ip), vehicle: saline): 190 % of control
- T/C (dose: 0.5 mg/kg/injection, schedule: Q04DX003 (ip), vehicle: water): 150 % of control
- T/C (dose: 0.54 mg/kg/injection, schedule: Q01DX009 (ip), vehicle: saline): 175 % of control
- T/C (dose: 0.75 mg/kg/injection, schedule: Q01DX005 (ip), vehicle: saline): 172 % of control
- T/C (dose: 0.75 mg/kg/injection, schedule: Q04DX003 (ip), vehicle: saline): 150 % of control
- T/C (dose: 0.9 mg/kg/injection, schedule: Q01DX009 (ip), vehicle: saline): 193 % of control
- T/C (dose: 1.0 mg/kg/injection, schedule: Q01DX005 (ip), vehicle: water): 167 % of control
- T/C (dose: 1.0 mg/kg/injection, schedule: Q01DX009 (ip), vehicle: Klucel (hydroxypropylcellulose) (HPC)): 222 % of control
- T/C (dose: 1.0 mg/kg/injection, schedule: Q01DX009 (ip), vehicle: saline): 193 % of control and 209 % of control and 227 % of control
- T/C (dose: 1.0 mg/kg/injection, schedule: Q01DX009 (ip), vehicle: suspension in saline): 163 % of control
- T/C (dose: 1.0 mg/kg/injection, schedule: Q04DX003 (ip), vehicle: saline): 176 % of control
- T/C (dose: 1.0 mg/kg/injection, schedule: Q04DX003 (ip), vehicle: water): 162 % of control
- T/C (dose: 1.25 mg/kg/injection, schedule: Q04DX003 (ip), vehicle: saline): 176 % of control
- T/C (dose: 1.25 mg/kg/injection, schedule: Q04DX003 (ip), vehicle: water): 158 % of control and 200 % of control
- T/C (dose: 1.25 mg/kg/injection, schedule: Q04DX003 (iv), vehicle: saline): 124 % of control
- T/C (dose: 1.5 mg/kg/injection, schedule: Q01DX005 (ip), vehicle: saline): 203 % of control
- T/C (dose: 1.5 mg/kg/injection, schedule: Q01DX009 (ip), vehicle: Klucel (hydroxypropylcellulose) (HPC)): 101 % of control
- T/C (dose: 1.5 mg/kg/injection, schedule: Q01DX009 (ip), vehicle: saline): 227 % of control
- T/C (dose: 1.5 mg/kg/injection, schedule: Q04DX003 (ip), vehicle: Klucel (hydroxypropylcellulose) (HPC)): 225 % of control
- T/C (dose: 1.5 mg/kg/injection, schedule: Q04DX003 (ip), vehicle: saline): 174 % of control
- T/C (dose: 1.62 mg/kg/injection, schedule: Q04DX003 (ip), vehicle: saline): 180 % of control
- T/C (dose: 1.62 mg/kg/injection, schedule: Q04DX003 (ip), vehicle: water): 191 % of control
- T/C (dose: 1.7 mg/kg/injection, schedule: Q04DX003 (ip), vehicle: saline): 174 % of control
- T/C (dose: 1.94 mg/kg/injection, schedule: Q04DX002 (ip), vehicle: saline): 190 % of control and 192 % of control and 206 % of control
- T/C (dose: 1.94 mg/kg/injection, schedule: Q04DX003 (ip), vehicle: saline): 186 % of control
- T/C (dose: 2.0 mg/kg/injection, schedule: Q01DX009 (ip), vehicle: saline): 236 % of control and 254 % of control
- T/C (dose: 2.0 mg/kg/injection, schedule: Q01DX009 (ip), vehicle: suspension in saline): 174 % of control and 221 % of control
- T/C (dose: 2.0 mg/kg/injection, schedule: Q04DX003 (ip), vehicle: saline): 196 % of control and 199 % of control and 200 % of control
- T/C (dose: 2.0 mg/kg/injection, schedule: Q04DX003 (ip), vehicle: water): 189 % of control
- T/C (dose: 2.2 mg/kg/injection, schedule: Q01DX005 (ip), vehicle: saline): 165 % of control and 203 % of control
- T/C (dose: 2.5 mg/kg/injection, schedule: Q01DX001 (ip), vehicle: Klucel (hydroxypropylcellulose) (HPC)): 207 % of control
- T/C (dose: 2.7 mg/kg/injection, schedule: Q04DX003 (ip), vehicle: saline): 194 % of control and 250 % of control
- T/C (dose: 2.7 mg/kg/injection, schedule: Q04DX003 (ip), vehicle: water): 233 % of control
- T/C (dose: 3.0 mg/kg/injection, schedule: Q04DX003 (ip), vehicle: Klucel (hydroxypropylcellulose) (HPC)): 119 % of control
- T/C (dose: 3.0 mg/kg/injection, schedule: Q04DX003 (ip), vehicle: saline): 196 % of control
- T/C (dose: 3.24 mg/kg/injection, schedule: Q04DX002 (ip), vehicle: saline): 202 % of control and 213 % of control and 243 % of control
- T/C (dose: 3.24 mg/kg/injection, schedule: Q04DX003 (ip), vehicle: saline): 220 % of control and 227 % of control
- T/C (dose: 3.6 mg/kg/injection, schedule: Q01DX005 (ip), vehicle: saline): 165 % of control and 233 % of control
- T/C (dose: 3.7 mg/kg/injection, schedule: Q04DX003 (ip), vehicle: saline): 220 % of control
- T/C (dose: 3.75 mg/kg/injection, schedule: Q04DX003 (ip), vehicle: distilled water + Tween-80): 215 % of control
- T/C (dose: 4.0 mg/kg/injection, schedule: Q01DX001 (ip), vehicle: suspension in saline): 183 % of control
- T/C (dose: 4.0 mg/kg/injection, schedule: Q01DX009 (ip), vehicle: Klucel (hydroxypropylcellulose) (HPC)): 161 % of control
- T/C (dose: 4.0 mg/kg/injection, schedule: Q01DX009 (ip), vehicle: saline): 166 % of control
- T/C (dose: 4.0 mg/kg/injection, schedule: Q01DX009 (ip), vehicle: suspension in saline): 169 % of control and 238 % of control
- T/C (dose: 4.0 mg/kg/injection, schedule: Q04DX003 (ip), vehicle: saline): 199 % of control and 211 % of control and 240 % of control
- T/C (dose: 4.0 mg/kg/injection, schedule: Q04DX003 (ip), vehicle: water): 225 % of control
- T/C (dose: 4.5 mg/kg/injection, schedule: Q04DX003 (ip), vehicle: saline): 240 % of control
- T/C (dose: 5.0 mg/kg/injection, schedule: Q01DX001 (ip), vehicle: saline): 208 % of control
- T/C (dose: 5.0 mg/kg/injection, schedule: Q04DX003 (iv), vehicle: saline): 194 % of control
- T/C (dose: 5.4 mg/kg/injection, schedule: Q04DX002 (ip), vehicle: saline): 254 % of control
- T/C (dose: 6.0 mg/kg/injection, schedule: Q01DX005 (ip), vehicle: saline): 226 % of control
- T/C (dose: 6.0 mg/kg/injection, schedule: Q04DX003 (ip), vehicle: Klucel (hydroxypropylcellulose) (HPC)): 117 % of control
- T/C (dose: 6.0 mg/kg/injection, schedule: Q04DX003 (ip), vehicle: saline): 218 % of control
- T/C (dose: 6.7 mg/kg/injection, schedule: Q01DX001 (ip), vehicle: saline): 185 % of control
- T/C (dose: 7.3 mg/kg/injection, schedule: Q04DX003 (ip), vehicle: saline): 239 % of control
- T/C (dose: 8.0 mg/kg/injection, schedule: Q01DX009 (ip), vehicle: Klucel (hydroxypropylcellulose) (HPC)): 109 % of control
- T/C (dose: 8.0 mg/kg/injection, schedule: Q01DX009 (ip), vehicle: saline): 99 % of control and 100 % of control
- T/C (dose: 8.0 mg/kg/injection, schedule: Q01DX009 (ip), vehicle: suspension in saline): 104 % of control and 108 % of control
- T/C (dose: 10.0 mg/kg/injection, schedule: Q01DX001 (iv), vehicle: saline): 185 % of control
- T/C (dose: 10.0 mg/kg/injection, schedule: Q04DX003 (iv), vehicle: saline): 100 % of control
- T/C (dose: 12.5 mg/kg/injection, schedule: Q04DX003 (ip), vehicle: saline): 152 % of control
- T/C (dose: 12.6 mg/kg/injection, schedule: Q04DX003 (ip), vehicle: saline): 239 % of control
- T/C (dose: 15.0 mg/kg/injection, schedule: Q04DX002 (ip), vehicle: saline): 101 % of control and 109 % of control
- T/C (dose: 15.0 mg/kg/injection, schedule: Q04DX003 (ip), vehicle: saline): 108 % of control
- T/C (dose: 16.0 mg/kg/injection, schedule: Q04DX003 (ip), vehicle: water): 115 % of control
- T/C (dose: 17.5 mg/kg/injection, schedule: Q01DX001 (ip), vehicle: saline): 243 % of control
- T/C (dose: 18.9 mg/kg/injection, schedule: Q04DX003 (ip), vehicle: saline): 107 % of control
- T/C (dose: 24.0 mg/kg/injection, schedule: Q04DX003 (ip), vehicle: saline): 107 % of control

SMILES: Cc1cccc(/C=C/C(=O)C(CN(C)C)CN(C)C)c1
- T/C (dose: 6.25 mg/kg/injection, schedule: Q01DX005 (ip), vehicle: Klucel (hydroxypropylcellulose) (HPC)): 104 % of control
- T/C (dose: 12.5 mg/kg/injection, schedule: Q01DX005 (ip), vehicle: Klucel (hydroxypropylcellulose) (HPC)): 100 % of control

SMILES: COC(=O)c1nc2[nH]n(-c3ccccc3)c(=O)c2c(C(=O)OC)c1C(C)C(=O)c1ccc(Cl)cc1 (stereo not given)
- T/C (dose: 60.0 mg/kg/injection, schedule: Q01DX005 (ip), vehicle: saline with Tween-80): 96 % of control
- T/C (dose: 120.0 mg/kg/injection, schedule: Q01DX005 (ip), vehicle: saline with Tween-80): 103 % of control
- T/C (dose: 240.0 mg/kg/injection, schedule: Q01DX005 (ip), vehicle: saline with Tween-80): 98 % of control
